{
  "source": "paper PMC10321640",
  "about": "“The VIPR2-selective antagonist KS-133 changes macrophage polarization and exerts potent anti-tumor effects as a single agent and in combination with an anti-PD-1 antibody” (PLOS ONE, 2023)",
  "key": {"[1]": {"system": "RAW264.7 murine macrophage-like cells", "test": "In vitro gene expression of M1-like and M2-like macrophage markers (real-time PCR)", "format": "cell-based", "details": "RAW264.7 in 20% CT26-CM/DMEM, 3 days", "protocol": "The detailed method and DNA primer sequences were described previously. RAW264.7 murine macrophage-like cells and CT26.WT murine colorectal cancer cells (CRL-2638) were purchased from RIKEN BRC (Tsukuba, Japan) and American Type Cell Collection (Manassas, VA, USA), respectively. CT26 cells (4 × 10^6) were grown in T75 flask with 20 mL of RPMI medium containing 10% FBS for 3 days. The culture medium (CT26-CM) was collected and centrifuged at 400 g for 5 min. RAW264.7 cells (2.4 × 10^5) were incubated in 24-well plate in the presence or absence of KS-133 (KS-133 concentration = 1, 3, or 10 μM, DMSO concentration = 0.1%) with 20% CT26-CM/DMEM for 3 days. During the incubation, medium containing KS-133 was replaced every day. mRNA extraction was performed using ISOGEN (Nippon Gene, Tokyo, Japan) on day 3 after CT26-CM incubation, and cDNA was prepared. The gene expression of M1 markers (TNF-α, iNOS, CXCL10), M2 markers (Mrc-1, IL-1rn, CCL22), and β-actin was analyzed by real-time polymerase chain reaction (PCR) using a 7300 Fast Real-Time PCR System (Applied Biosystems, Thermo Fisher Scientific, MA, USA,) and Light Cycler Fast Start DNA Master kit (Applied Biosystems). The relative mRNA expression was determined using the 2^−ΔΔCt method. ΔΔCt was calculated using control group data.\nIt has been reported that when RAW264.7 cells are incubated in the presence of the culture supernatant of CT26 cells, M1-type macrophage marker mRNA expression is decreased, and that of M2-type macrophages is increased. Using this assay system, we evaluated whether KS-133 affect the mRNA expression of TNFα, iNOS, and CXCL10 as M1-type macrophage markers and Mrc-1, IL-1Rn, and CCL-22 as M2-type macrophage markers. […] Therefore, VIPR2 inhibition by KS-133 changes the macrophage polarity toward M1.\nFig 1 Variation of marker gene expression in M1- and M2-type macrophages in the presence of KS-133. Results are presented as the mean ± SEM (n = 3 independent experiments using separately treated cultures, *p < 0.05 vs. control by two-way ANOVA)."}, "CT26 tumors": {"system": "CT26 tumors", "test": "In vivo anti-tumor evaluation, CT26 subcutaneous allografts", "parameters": "species or system BALB/cCrSlc female mice", "details": "Fig 2A, KS-133 30 μg/mouse s.c. daily", "protocol": "All experimental procedures that involved animals and their care were conducted in compliance with the Guide for the Care and Use of Laboratory Animals and ARRIVE guidelines. These animal experiments were approved by the Animal Care and Use Committee of Kagawa University (approval No. 21650) and conducted at Kagawa University in accordance with the guidelines. To establish subcutaneous allograft tumors, CT26 cells (1 × 10^5) were subcutaneously injected into the left groin region of BALB/cCrSlc female mice (6 weeks old; Japan SLC, Inc., Shizuoka, Japan) under isoflurane anesthesia. […] The tumor growth rate was recorded on days 1, 7, 14, and 21 by measuring the major and minor axes with a digital caliper. […]\nFig 2 Anti-tumor effects of KS-133 and KS-133 NPs with or without anti-PD-1 antibody in mice bearing CT26 subcutaneous allografts. […] (A) Anti-tumor efficacy of KS-133 (n = 9–10 mice per group, expressed as the mean ± SEM, *p < 0.01 and **p < 0.001 vs. vehicle control by two-way ANOVA). […] (B) Anti-tumor efficacy of KS-133 NPs (n = 11 mice per group, expressed as the mean ± SEM, *p < 0.05 and **p < 0.001 vs. vehicle control by two-way ANOVA). […] (C) Anti-tumor efficacy of KS-133 NPs and KS-133(P3S) NPs with an anti-PD-1 antibody (n = 6–8 mice per group, expressed as the mean ± SEM, *p < 0.01 and **p < 0.001 vs. Vehicle control by two-way ANOVA). […]"}, "[2]": {"details": "KS-133 10 μM, 0.1% DMSO, 2^−ΔΔCt, n = 3, p < 0.05 vs control"}},
  "note": "Where a SMILES comes first, the peptide text is derived from it. Bridges are numbered along the chain shown (N, C = ends).",
  "data": [
    {"smiles": "CC[C@H](C)[C@H](NC(=O)[C@H](CC(C)C)NC(=O)[C@@H]1CC(=O)NCCCC[C@@H]2NC(=O)[C@@H]3CCCN3C(=O)[C@H](CC(C)C)NC(=O)[C@H](Cc3ccc(O)cc3)NC(=O)[C@@H]3CCCN3C(=O)[C@@H]3CCCN3C(=O)[C@@H](NC(C)=O)CSSC[C@H](NC(=O)[C@H](CC(C)C)NC(=O)[C@H](Cc3ccc(O)cc3)NC2=O)C(=O)N1)C(N)=O", "note": "[KS-133] (Ac-CPPYLPKYLCDLI-NH2; disulfide 1-10; lactam 7-11)", "values": [
      {"measurement": "mRNA expression level of CXCL10 (M1-type macrophage marker)", "setting": "[1]; [2]", "result": "significantly enhanced"},
      {"measurement": "mRNA expression level of iNOS (M1-type macrophage marker)", "setting": "[1]; [2]", "result": "significantly enhanced"},
      {"measurement": "CCL22 expression (M2-type macrophage marker)", "setting": "[1]", "result": "no effect"},
      {"measurement": "IL-1Rn expression (M2-type macrophage marker)", "setting": "[1]", "result": "no effect"},
      {"measurement": "mRNA expression of Mrc-1 (M2-type macrophage marker)", "setting": "[1]; n = 3, p < 0.05 vs control", "result": "significantly decreased"},
      {"measurement": "effect on CT26 tumor growth (in words)", "setting": "CT26 tumors; alone or with anti-PD-1 antibody 200 μg/mouse i.p. three times in a week, combination p < 0.001 vs vehicle", "result": "tended to suppress CT26 tumor growth"},
      {"measurement": "tumor volume, control group set as 100%", "setting": "CT26 tumors; anti-PD-1 antibody 200 μg/mouse i.p. three times in a week, 3 weeks, n = 9–10 mice per group", "result": 66, "unit": "%"}
    ]}
  ]
}
